Holding throughout (assay): Kinase selectivity, DiscoverX scanMAX Kinase assay panel (% control)
Common to all, as to format: binding

The target of assay [1] is T1, kinases of the scanMAX Kinase assay panel (Homo sapiens, UniProt Q96SB4).
T1 construct: purchased DiscoverX Co. (contract measurement) scanMAX Kinase assay panel
The conditions noted are these: kinase SRPK1; 1 uM in DMSO. Put shortly: (§1)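 Each enzyme is treated with drug at 1 uM in DMSO, then signal is scaled between a positive control (0%) and DMSO (100%) to give % control. Kinases with % control under 35% are scored as inhibited.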

For assay [2], the target named is T2, kinases of the scanMAX Kinase assay panel (Homo sapiens, UniProt P54760).
T2 construct: purchased DiscoverX Co. (contract measurement) scanMAX Kinase assay panel
T2 sequence (P54760 16-987): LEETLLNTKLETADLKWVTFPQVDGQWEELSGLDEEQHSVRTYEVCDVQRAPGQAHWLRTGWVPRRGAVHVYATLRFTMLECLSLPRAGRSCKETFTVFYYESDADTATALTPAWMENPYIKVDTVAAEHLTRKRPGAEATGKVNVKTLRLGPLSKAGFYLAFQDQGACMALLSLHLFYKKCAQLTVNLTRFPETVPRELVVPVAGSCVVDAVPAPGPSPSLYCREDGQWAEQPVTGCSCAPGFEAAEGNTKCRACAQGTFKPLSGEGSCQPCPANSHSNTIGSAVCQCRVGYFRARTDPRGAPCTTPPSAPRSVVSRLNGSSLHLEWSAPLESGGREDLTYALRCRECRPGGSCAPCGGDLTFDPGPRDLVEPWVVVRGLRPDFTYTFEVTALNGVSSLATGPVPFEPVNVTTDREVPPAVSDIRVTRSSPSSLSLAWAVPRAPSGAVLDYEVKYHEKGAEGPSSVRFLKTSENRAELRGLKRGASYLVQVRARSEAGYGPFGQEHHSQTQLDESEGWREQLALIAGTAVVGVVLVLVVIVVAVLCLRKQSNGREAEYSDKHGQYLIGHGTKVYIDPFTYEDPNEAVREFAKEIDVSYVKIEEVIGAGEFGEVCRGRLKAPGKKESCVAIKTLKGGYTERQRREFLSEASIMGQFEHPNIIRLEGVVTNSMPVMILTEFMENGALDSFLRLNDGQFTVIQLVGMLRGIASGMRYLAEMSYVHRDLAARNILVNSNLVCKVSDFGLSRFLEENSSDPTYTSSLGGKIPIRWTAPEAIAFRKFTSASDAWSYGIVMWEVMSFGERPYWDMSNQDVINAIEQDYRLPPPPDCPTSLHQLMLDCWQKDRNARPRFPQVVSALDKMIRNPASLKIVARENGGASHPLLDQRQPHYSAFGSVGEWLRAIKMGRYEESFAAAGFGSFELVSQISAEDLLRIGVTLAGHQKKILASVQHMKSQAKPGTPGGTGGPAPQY
The conditions noted are these: EPHB4; 1 uM. The method in brief: as §1

The target of assay [3] is T3, kinases of the scanMAX Kinase assay panel (Homo sapiens, UniProt P32298).
T3 construct: purchased DiscoverX Co. (contract measurement) scanMAX Kinase assay panel
T3 sequence (P32298 whole entry): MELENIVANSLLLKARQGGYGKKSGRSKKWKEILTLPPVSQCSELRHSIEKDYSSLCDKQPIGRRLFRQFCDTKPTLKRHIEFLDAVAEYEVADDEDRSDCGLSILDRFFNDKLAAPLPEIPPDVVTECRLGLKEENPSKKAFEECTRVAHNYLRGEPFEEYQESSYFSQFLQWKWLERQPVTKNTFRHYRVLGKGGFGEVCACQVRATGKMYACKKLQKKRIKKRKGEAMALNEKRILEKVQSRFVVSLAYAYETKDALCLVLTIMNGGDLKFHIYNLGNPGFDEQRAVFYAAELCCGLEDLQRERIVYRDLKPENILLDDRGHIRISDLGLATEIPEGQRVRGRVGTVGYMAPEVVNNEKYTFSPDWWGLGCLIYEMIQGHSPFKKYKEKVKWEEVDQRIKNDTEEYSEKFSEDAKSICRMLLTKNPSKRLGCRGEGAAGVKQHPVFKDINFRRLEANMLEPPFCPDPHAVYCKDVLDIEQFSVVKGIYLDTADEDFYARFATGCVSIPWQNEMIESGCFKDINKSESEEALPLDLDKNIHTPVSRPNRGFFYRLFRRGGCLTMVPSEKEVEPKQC
The conditions noted are these: GRK4; 1 uM. Put shortly:
as §1

Assay [4] addresses T4, kinases of the scanMAX Kinase assay panel (Homo sapiens, UniProt Q9NRH2).
T4 construct: purchased DiscoverX Co. (contract measurement) scanMAX Kinase assay panel
T4 sequence (Q9NRH2 1-765): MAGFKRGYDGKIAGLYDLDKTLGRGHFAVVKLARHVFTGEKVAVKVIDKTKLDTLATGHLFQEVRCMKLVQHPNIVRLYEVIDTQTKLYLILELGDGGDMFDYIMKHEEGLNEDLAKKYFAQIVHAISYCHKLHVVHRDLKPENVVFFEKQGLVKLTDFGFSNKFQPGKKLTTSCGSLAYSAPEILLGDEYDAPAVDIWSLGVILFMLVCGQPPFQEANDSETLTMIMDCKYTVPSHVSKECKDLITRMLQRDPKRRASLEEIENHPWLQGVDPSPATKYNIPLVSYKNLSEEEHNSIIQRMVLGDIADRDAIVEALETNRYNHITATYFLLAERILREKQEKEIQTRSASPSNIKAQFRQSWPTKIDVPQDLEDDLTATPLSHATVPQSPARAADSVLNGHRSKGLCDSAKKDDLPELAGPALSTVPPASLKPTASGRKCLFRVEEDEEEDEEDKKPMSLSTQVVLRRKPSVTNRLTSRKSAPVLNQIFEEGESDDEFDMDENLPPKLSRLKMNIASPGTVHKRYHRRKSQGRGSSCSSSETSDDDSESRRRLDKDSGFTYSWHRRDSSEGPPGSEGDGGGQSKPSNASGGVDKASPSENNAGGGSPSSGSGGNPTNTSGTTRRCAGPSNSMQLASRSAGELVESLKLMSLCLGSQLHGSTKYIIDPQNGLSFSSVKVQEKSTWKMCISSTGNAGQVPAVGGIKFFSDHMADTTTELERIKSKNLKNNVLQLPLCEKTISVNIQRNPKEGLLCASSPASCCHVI
The note with it: kinase SNRK; 1 uM in DMSO. The method in brief: as §1

In assay [5] the target is T5, kinases of the scanMAX Kinase assay panel (Homo sapiens, UniProt P53779).
T5 construct: purchased DiscoverX Co. (contract measurement) scanMAX Kinase assay panel
T5 sequence (P53779 whole entry): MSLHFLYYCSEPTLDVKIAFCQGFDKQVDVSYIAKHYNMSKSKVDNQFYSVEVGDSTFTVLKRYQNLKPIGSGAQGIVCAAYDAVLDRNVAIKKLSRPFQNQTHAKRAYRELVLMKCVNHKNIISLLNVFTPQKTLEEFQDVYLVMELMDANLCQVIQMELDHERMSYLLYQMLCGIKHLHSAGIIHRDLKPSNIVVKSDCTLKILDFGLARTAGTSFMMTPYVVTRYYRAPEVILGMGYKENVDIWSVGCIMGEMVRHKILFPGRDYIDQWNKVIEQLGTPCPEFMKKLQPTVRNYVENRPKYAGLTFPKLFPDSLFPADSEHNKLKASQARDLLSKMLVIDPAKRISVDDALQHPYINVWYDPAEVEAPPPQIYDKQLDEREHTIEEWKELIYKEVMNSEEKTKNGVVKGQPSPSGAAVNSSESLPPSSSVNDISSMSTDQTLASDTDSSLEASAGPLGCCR
The note with it: JNK3; 1 uM. Put shortly: as §1

For assay [6], the target named is T6, kinases of the scanMAX Kinase assay panel (Homo sapiens, UniProt P0C1S8).
T6 construct: purchased DiscoverX Co. (contract measurement) scanMAX Kinase assay panel
T6 sequence (P0C1S8 whole entry): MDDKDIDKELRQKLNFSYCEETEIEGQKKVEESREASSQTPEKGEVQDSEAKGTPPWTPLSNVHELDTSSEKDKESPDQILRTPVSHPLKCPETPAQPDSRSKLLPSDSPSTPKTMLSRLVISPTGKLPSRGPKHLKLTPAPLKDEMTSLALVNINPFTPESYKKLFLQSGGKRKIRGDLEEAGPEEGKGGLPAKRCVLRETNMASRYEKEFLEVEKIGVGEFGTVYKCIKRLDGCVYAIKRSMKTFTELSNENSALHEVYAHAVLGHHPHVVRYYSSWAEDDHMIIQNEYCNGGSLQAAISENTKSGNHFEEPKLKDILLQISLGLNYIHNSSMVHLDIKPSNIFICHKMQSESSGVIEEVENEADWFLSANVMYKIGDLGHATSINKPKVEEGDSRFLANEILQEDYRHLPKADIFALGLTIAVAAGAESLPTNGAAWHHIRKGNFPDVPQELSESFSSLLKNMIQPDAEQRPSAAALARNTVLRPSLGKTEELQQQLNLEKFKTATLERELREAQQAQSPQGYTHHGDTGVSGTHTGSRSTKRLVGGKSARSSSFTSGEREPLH
The note with it: kinase WEE2; 1 uM in DMSO. The method in brief: as §1

T1 sequence (Q96SB4 whole entry): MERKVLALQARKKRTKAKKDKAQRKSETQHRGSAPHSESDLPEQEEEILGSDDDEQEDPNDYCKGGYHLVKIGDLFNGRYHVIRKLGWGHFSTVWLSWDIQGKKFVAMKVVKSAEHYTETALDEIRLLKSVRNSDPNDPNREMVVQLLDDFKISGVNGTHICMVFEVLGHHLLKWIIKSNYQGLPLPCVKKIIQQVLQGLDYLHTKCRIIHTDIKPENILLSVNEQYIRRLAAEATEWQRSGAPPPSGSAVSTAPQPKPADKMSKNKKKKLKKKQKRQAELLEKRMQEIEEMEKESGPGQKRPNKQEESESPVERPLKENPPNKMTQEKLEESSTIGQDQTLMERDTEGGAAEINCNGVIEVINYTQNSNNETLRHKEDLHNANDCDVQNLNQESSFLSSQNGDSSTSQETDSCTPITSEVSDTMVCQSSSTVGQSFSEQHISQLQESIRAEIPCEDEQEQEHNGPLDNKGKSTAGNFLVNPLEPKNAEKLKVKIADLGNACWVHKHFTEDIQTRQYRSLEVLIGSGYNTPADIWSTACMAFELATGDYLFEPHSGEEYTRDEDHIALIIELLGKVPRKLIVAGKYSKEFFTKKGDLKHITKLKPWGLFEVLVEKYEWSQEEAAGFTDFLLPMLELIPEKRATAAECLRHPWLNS

For `CC1(Nc2nc(Nc3cnn([C@H]4CCN(C5COC5)C[C@@H]4F)c3Cl)nc3[nH]cc(C#N)c23)CC1` [Example 52, 2-((5-chloro-1-((3S,4S)-3-fluoro-1-(oxetane-3-yl)piperidine-4-yl)-1H-pyrazole-4-yl)amino)((1-methylcyclopropyl)amino)-7H-pyrrolo[2,3-d]pyrimidine-5-carbonitrile], the remaining binding at 1 µM in assay [1] is 0.05%; in assay [2], 48%; in assay [3], 1.6%; in assay [4], 7.6%; in assay [5], 0%; in assay [6], 100%.

Take `CCNc1nc(Nc2ccc(C(=O)N3CCC(N4CCOCC4)CC3)cc2OC)nc2[nH]cc(C(F)(F)F)c12` [Example 104, (4-((4-(ethylamino)-5-(trifluoromethyl)-7H-pyrrolo[2,3-d]pyrimidine-2-yl)amino)-3-methoxyphenyl)(4-morpholinopiperidine-1-yl)methanone]: the remaining binding at 1 µM stood at 100% in assay [1]; 100% in assay [2]; 100% in assay [3]; 69% in assay [4]; 18% in assay [5]; 100% in assay [6].

Take `CNc1nc(Nc2ccc(C(=O)N3CCOCC3)cc2OC)nc2[nH]cc(C#N)c12` [Example 1, 2-((2-methoxy-4-(morpholine-4-carbonyl)phenyl)amino)-4-(methylamino)-7H-pyrrolo[2,3-d]pyrimidine-5-carbonitrile]: the remaining binding at 1 µM in assay [1] was found to be 66%; in assay [2] it was 95%; in assay [3], 92%; in assay [4], 64%; in assay [5] it was 0%; in assay [6], 100%.

The values above are taken from patent US11208412B2 (DAEGU-GYEONGBUK MEDICAL INNOVATION FOUNDATION, priority 2017, dated 2021).
